Where “and” joins values, the source holds several entries; their conditions need not be identical. Equal entries are not always repeated.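 Five concentrations, 48 hours, 96-well plates. GI50 = concentration required for 50% inhibition of growth. TGI denotes the concentration required for complete inhibition of growth.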 Where a SMILES comes first, the peptide text is derived from it. [ ]: non-standard residue; d: D form. Ac5c = NC1(C(=O)O)CCCC1
Columns and labels:
Assay in all cases: NCI anticancer screen, dose series, 48 h
[1] = system: CCRF-CEM leukemia
[2] = system: HCC-2998 colon
[3] = system: HCT-116 colon
[4] = system: MOLT-4 leukemia
[5] = system: NCI-H460 lung
[6] = system: UO-31 renal
[7] = system: CAKI-1 renal
[8] = system: MDA-MB-435
[9] = system: NCI/ADR-RES ovarian
[10] = system: T-47D breast

Row | Structure (SMILES) | TGI [1] | TGI [2] | TGI [3] | TGI [4] | TGI [5] | TGI [6] | TGI [7] | TGI [8] | TGI [9] | GI50 [7] | GI50 [1] | GI50 [3] | GI50 [8] | GI50 [4] | GI50 [5] | GI50 [9] | GI50 [10] | TGI [10] | GI50 [6] | GI50 [2]
1 | CCCCc1c2c(nc3c1CCC/C3=C\c1ccccc1)C(=O)CCC2 | 61.7 µM | 35.2 µM | 39.5 µM | 43.4 µM | > 100 µM | 61.8 µM |  |  |  |  |  |  |  |  |  |  |  |  |  | 
2 | Cc1[nH]c2ccccc2c1C1Cc2ccccc2N1C(=O)/C=C\C(=O)O (configuration not stated) | 94.1 µM | > 100 µM | > 100 µM | > 100 µM | > 100 µM | > 100 µM | > 100 µM |  |  |  |  |  |  |  |  |  |  |  |  | 
3 | CCCCCCCCC[C@@H]1CC(=O)OCC2OC(O[C@H](CCCCCCCCC)CC(=O)OCC3OC(O[C@H](CCCCCCCCC)CC(=O)OCC4OC(O1)C(O)C(O)C4O)C(O)C(O)C3O)C(O)C(O)C2O (some centres not stated) | 19.4 µM | 24.7 µM | 21.9 µM | 20.6 µM | 17.3 µM | 24.6 µM | 14.9 µM |  |  |  |  |  |  |  |  |  |  |  |  | 
4 | NNC(=O)/C(=C/c1ccc(Cl)c(Cl)c1)NC(=O)c1ccccc1 | > 100 µM | > 100 µM | > 100 µM | > 100 µM | > 100 µM | > 100 µM |  |  |  |  |  |  |  |  |  |  |  |  |  | 
5 | Cn1ccnc1CC(C)(O)c1ccccc1 (configuration not stated) |  | > 100 µM | > 100 µM |  | > 100 µM | > 100 µM | > 100 µM | > 100 µM | > 100 µM |  |  |  |  |  |  |  |  |  |  | 
6 | COc1cc2c(cc1OCCCOc1cc3c(cc1OC)C(=O)N1C[C@H](F)C[C@H]1C=N3)N=C[C@@H]1C[C@@H](F)CN1C2=O | 51.7 µM |  | 42.8 µM | 4.3 µM | 20.1 µM | 26 µM | 17.6 µM | 27.4 µM | 26 µM | 4.83 µM | 3.8 µM | 6.4 µM | 14.3 µM | 1.33 µM | 6.15 µM | 11.9 µM | 15.9 µM | 58 µM | 13.2 µM | 
7 | COc1ccc([N+]2=NC(c3ccc([N+](=O)[O-])cc3)=NN(c3ccccc3)C2)cc1 | 92.8 µM and 52.1 µM | > 100 µM | > 100 µM | 74.4 µM and > 100 µM | > 100 µM | > 100 µM |  |  |  |  |  |  |  |  |  |  |  |  |  | 
8 | CC(C)=CCCC(C)c1ccc(C)c2c1OCN(CC1CCNCC1)C2 (configuration not stated) |  | 12.3 µM | 21.7 µM | 43.3 µM | 16.6 µM | 27.3 µM | 36.8 µM | 20.9 µM | 34.8 µM | 17.7 µM |  | 7.17 µM | 6.48 µM | 14.6 µM | 5.36 µM | 16.8 µM | 15.2 µM | 33.2 µM | 12.8 µM | 3.74 µM
9 | O=C1OC(CC(=O)c2ccc(Cl)c(Cl)c2)C(Cl)=C1Cl (configuration not stated) | 62.5 µM | > 100 µM |  | > 100 µM | > 100 µM | > 100 µM | > 100 µM |  |  |  |  |  |  |  |  |  |  |  |  | 
10 | CC1=C(C(=O)Nc2ccccc2C)C(c2ccc(Cl)c(Cl)c2)C(C(=O)Nc2ccccc2C)=C(C)N1 | 54.8 µM | 69.9 µM | 45.2 µM | 48.8 µM | 36.4 µM | > 100 µM | > 100 µM |  |  |  |  |  |  |  |  |  |  |  |  | 
11 | NC1(C(=O)NC2(C(=O)O)CCCC2)CCCC1 (H-[Ac5c]-[Ac5c]-OH) | > 100 µM |  | > 100 µM | > 100 µM | > 100 µM | > 100 µM | > 100 µM | > 100 µM | > 100 µM |  |  |  |  |  |  |  |  | > 100 µM |  | 

— PubChem BioAssay (NCI)
